pEC50, pKi: −log10 of the molar value. Values belong to the compound of their own block, whether it stands above or below them.
How the values were obtained:
[1] = target: Beta-3 adrenergic receptor (Homo sapiens, UniProt P13945)
Description: Activity at human beta-3 adrenergic receptor expressed in CHO cells by stimulation of cAMP production

[2] = target: T1, Beta-2 adrenergic receptor (Homo sapiens, UniProt P07550)
Description: Activity at human beta-2 adrenergic receptor expressed in CHO cells by stimulation of cAMP production

[3] = target: T2, Beta-1 adrenergic receptor (Homo sapiens, UniProt P08588)
Description: Activity at human beta-1 adrenergic receptor expressed in CHO cells by stimulation of cAMP production

Mus musculus [4] = test: Increase of thermogenic activity in CD1 mouse at 3 mg/kg; type: functional, organism-based; parameters: dose 3 mg/kg
Mus musculus [5] = test: Increase of thermogenic activity in CD1 mouse at 10 mg/kg; type: functional, organism-based; parameters: dose 10 mg/kg
[6] = Volume of distribution in Beagle dog; type: ADME, organism-based, Canis lupus familiaris; conditions: in vivo, read-out: Vss
[7] = Half life in po dosed Beagle dog; type: ADME, organism-based, Canis lupus familiaris; conditions: in vivo
[8] = Bioavailability in Beagle dog; type: ADME, organism-based, Canis lupus familiaris; conditions: in vivo
Mus musculus [9] = test: Decrease in plasma glucose level in db/db mouse at 10 mg/kg, po after 14 days; type: functional
Mus musculus [10] = test: Decrease in plasma glucose level in db/db mouse at 30 mg/kg, po after 14 days; type: functional
Mus musculus [11] = test: Decrease in plasma glucose level in db/db mouse at 100 mg/kg, po after 14 days; type: functional
Mus musculus [12] = test: Decrease in glycosylated hemoglobin in db/db mouse at 10 mg/kg, po after 14 days; type: functional; parameters: scale not given: the % may be the effect or the level left
Mus musculus [13] = test: Decrease in glycosylated hemoglobin in db/db mouse at 30 mg/kg, po after 14 days; type: functional; parameters: scale not given: the % may be the effect or the level left
Mus musculus [14] = test: Decrease in glycosylated hemoglobin in db/db mouse at 100 mg/kg, po after 14 days; type: functional; parameters: scale not given: the % may be the effect or the level left
Mus musculus [15] = test: Decrease in plasma insulin level in db/db mouse at 10 mg/kg, po after 14 days; type: functional
Mus musculus [16] = test: Decrease in plasma insulin level in db/db mouse at 30 mg/kg, po after 14 days; type: functional
Mus musculus [17] = test: Decrease in plasma insulin level in db/db mouse at 100 mg/kg, po after 14 days; type: functional
Mus musculus [18] = test: Increase of thermogenic activity in CD1 mouse at 30 mg/kg; type: functional, organism-based; parameters: dose 30 mg/kg
[19] = AUC(0-infinity) in po dosed Beagle dog; type: ADME, organism-based, Canis lupus familiaris; parameters: time infinity, route oral; conditions: plasma
[20] = Clearance in Beagle dog; type: ADME, organism-based, Canis lupus familiaris; conditions: in vivo
[21] = Clearance in Wistar Han rat at 1 mg/kg, iv or 1 mg/kg, po; type: ADME, organism-based; conditions: in vivo
[22] = Renal clearance in Wistar Han rat at 1 mg/kg, iv or 1 mg/kg, po; type: ADME, organism-based, Kidney; conditions: in vivo, read-out: CL_renal
[23] = Volume of distribution in Wistar Han rat at 1 mg/kg, iv or 1 mg/kg, po; type: ADME, organism-based; conditions: in vivo, read-out: Vss
[24] = Half life in Wistar Han rat at 1 mg/kg, iv; type: ADME, organism-based; parameters: dose 1 mg/kg, route intravenous; conditions: in vivo
[25] = Half life in Wistar Han rat at 1 mg/kg, po; type: ADME, organism-based; parameters: dose 1 mg/kg, route oral; conditions: in vivo
[26] = Bioavailability in Wistar Han rat at 1 mg/kg, po and 1 mg/kg, iv; type: ADME, organism-based; conditions: in vivo
[27] = Renal clearance in Beagle dog; type: ADME, organism-based, Canis lupus familiaris, Kidney; conditions: in vivo, read-out: CL_renal
[28] = Half life in Beagle dog at 0.2 mg/kg, iv; type: ADME, organism-based, Canis lupus familiaris; parameters: dose 0.2 mg/kg, route intravenous; conditions: in vivo
[29] = Clearance in cynomolgus monkey; type: ADME, organism-based, Macaca fascicularis; conditions: in vivo
[30] = Volume of distribution in cynomolgus monkey; type: ADME, organism-based, Macaca fascicularis; conditions: in vivo, read-out: Vss
[31] = Half life in iv dosed cynomolgus monkey; type: ADME, organism-based, Macaca fascicularis; conditions: in vivo
[32] = Half life in po dosed cynomolgus monkey; type: ADME, organism-based, Macaca fascicularis; conditions: in vivo
[33] = target: T1, Beta-2 adrenergic receptor; test: Displacement of [125I]cyanopindolol from human cloned beta-2 adrenergic receptor expressed in Sf9 cells
[34] = target: Beta-2 adrenergic receptor and beta-3 adrenergic receptor (Homo sapiens, UniProt P07550+P13945); test: Ratio of pEC50 for human beta-3 adrenergic receptor to pKi for human beta2 adrenergic receptor; type: functional
[35] = target: T2, Beta-1 adrenergic receptor; test: Displacement of [125I]cyanopindolol from human cloned beta-1 adrenergic receptor expressed in Sf9 cells
Mus musculus [36] = test: Decrease in plasma glucose level in db/db mouse at 0.01 mg/kg, po after 14 days; type: functional
Mus musculus [37] = test: Decrease in plasma glucose level in db/db mouse at 0.1 mg/kg, po after 14 days; type: functional
Mus musculus [38] = test: Decrease in plasma glucose level in db/db mouse at 1 mg/kg, po after 14 days; type: functional
Mus musculus [39] = test: Decrease in glycosylated hemoglobin in db/db mouse at 0.01 mg/kg, po after 14 days; type: functional; parameters: scale not given: the % may be the effect or the level left
Mus musculus [40] = test: Decrease in glycosylated hemoglobin in db/db mouse at 0.1 mg/kg, po after 14 days; type: functional; parameters: scale not given: the % may be the effect or the level left
Mus musculus [41] = test: Decrease in glycosylated hemoglobin in db/db mouse at 1 mg/kg, po after 14 days; type: functional; parameters: scale not given: the % may be the effect or the level left
Mus musculus [42] = test: Decrease in plasma insulin level in db/db mouse at 0.01 mg/kg, po after 14 days; type: functional
Mus musculus [43] = test: Decrease in plasma insulin level in db/db mouse at 0.1 mg/kg, po after 14 days; type: functional
Mus musculus [44] = test: Decrease in plasma insulin level in db/db mouse at 1 mg/kg, po after 14 days; type: functional
Mus musculus [45] = test: Decrease in plasma glucose level in db/db mouse at 0.03 mg/kg, po after 14 days; type: functional
Mus musculus [46] = test: Decrease in plasma glucose level in db/db mouse at 0.3 mg/kg, po after 14 days; type: functional
Mus musculus [47] = test: Decrease in plasma glucose level in db/db mouse at 3 mg/kg, po after 14 days; type: functional
Mus musculus [48] = test: Decrease in glycosylated hemoglobin in db/db mouse at 0.03 mg/kg, po after 14 days; type: functional; parameters: scale not given: the % may be the effect or the level left
Mus musculus [49] = test: Decrease in glycosylated hemoglobin in db/db mouse at 3 mg/kg, po after 14 days; type: functional; parameters: scale not given: the % may be the effect or the level left
Mus musculus [50] = test: Decrease in plasma insulin level in db/db mouse at 0.03 mg/kg, po after 14 days; type: functional
Mus musculus [51] = test: Decrease in plasma insulin level in db/db mouse at 0.3 mg/kg, po after 14 days; type: functional
Mus musculus [52] = test: Decrease in plasma insulin level in db/db mouse at 3 mg/kg, po after 14 days; type: functional
Mus musculus [53] = test: Decrease in glycosylated hemoglobin in db/db mouse at 0.3 mg/kg, po after 14 days; type: functional; parameters: scale not given: the % may be the effect or the level left

T1 sequence (P07550 whole entry): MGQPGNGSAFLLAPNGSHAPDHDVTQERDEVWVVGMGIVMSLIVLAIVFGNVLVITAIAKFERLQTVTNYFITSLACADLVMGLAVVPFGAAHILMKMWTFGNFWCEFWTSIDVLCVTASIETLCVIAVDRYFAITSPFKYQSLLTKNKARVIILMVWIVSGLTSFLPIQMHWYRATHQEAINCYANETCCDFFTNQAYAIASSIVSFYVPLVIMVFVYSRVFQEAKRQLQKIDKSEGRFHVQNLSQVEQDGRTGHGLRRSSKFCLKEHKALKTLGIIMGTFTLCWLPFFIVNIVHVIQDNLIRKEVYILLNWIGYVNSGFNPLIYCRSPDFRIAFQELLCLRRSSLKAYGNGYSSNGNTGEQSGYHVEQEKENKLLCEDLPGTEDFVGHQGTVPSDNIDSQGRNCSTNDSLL
Beta-3 adrenergic receptor, sequence (P13945 whole entry): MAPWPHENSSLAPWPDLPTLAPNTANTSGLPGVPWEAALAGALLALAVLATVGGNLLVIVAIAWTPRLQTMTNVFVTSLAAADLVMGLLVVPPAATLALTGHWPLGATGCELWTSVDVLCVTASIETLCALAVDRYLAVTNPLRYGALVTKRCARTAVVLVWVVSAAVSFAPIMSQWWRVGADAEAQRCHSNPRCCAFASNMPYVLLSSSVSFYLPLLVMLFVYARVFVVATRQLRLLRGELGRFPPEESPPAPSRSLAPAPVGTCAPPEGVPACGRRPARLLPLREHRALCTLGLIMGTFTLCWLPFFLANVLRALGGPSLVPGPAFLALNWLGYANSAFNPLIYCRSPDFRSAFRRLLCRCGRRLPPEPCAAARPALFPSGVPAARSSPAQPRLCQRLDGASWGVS
T2 sequence (P08588 whole entry): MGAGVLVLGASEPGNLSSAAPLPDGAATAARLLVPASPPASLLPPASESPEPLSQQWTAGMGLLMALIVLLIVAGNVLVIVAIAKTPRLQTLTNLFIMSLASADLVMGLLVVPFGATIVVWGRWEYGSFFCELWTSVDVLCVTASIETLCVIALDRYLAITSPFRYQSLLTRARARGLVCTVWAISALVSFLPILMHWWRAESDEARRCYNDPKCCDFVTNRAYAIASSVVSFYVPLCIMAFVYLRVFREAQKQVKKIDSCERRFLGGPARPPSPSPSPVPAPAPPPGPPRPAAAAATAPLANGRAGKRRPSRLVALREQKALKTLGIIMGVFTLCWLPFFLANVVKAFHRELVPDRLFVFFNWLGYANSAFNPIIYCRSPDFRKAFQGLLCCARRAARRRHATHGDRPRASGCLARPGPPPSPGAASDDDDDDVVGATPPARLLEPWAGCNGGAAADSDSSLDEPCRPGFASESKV

Structure (SMILES): C[C@H](CNc1cccc(-c2ncccc2C(=O)O)c1)NC[C@H](O)c1cccc(Cl)c1
pEC50 [1]: 7.50 | pEC50 [2]: 5.80 | pEC50 [3]: 6.10

Structure (SMILES): C[C@H](CNc1cccc(-c2cccc(C(=O)O)c2)c1)NC[C@H](O)c1cccc(Cl)c1
Vd [6]: 0.45 L/kg | half-life [7]: 2.5 h | bioavailability [8]: 28% | AUC(0-inf) [19]: 135 ng·h/mL | clearance [20]: 7.3 mL/min/kg | pEC50 [1]: 10.00 | pEC50 [2]: 7.30 | pEC50 [3]: 8.20

Structure (SMILES): O=C(O)c1ccncc1-c1cccc(NCCNC[C@H](O)c2cccc(Cl)c2)c1
Vd [6]: 0.33 L/kg | half-life [7]: 1.7 h | bioavailability [8]: 27% | plasma glucose (Mus musculus [36]): 351 mg/dL | plasma glucose (Mus musculus [37]): 181 mg/dL | plasma glucose (Mus musculus [38]): 180 mg/dL | Activity (Mus musculus [39]): 5.6% | Activity (Mus musculus [40]): 5% | Activity (Mus musculus [41]): 4.8% | Activity (Mus musculus [42]): 11.4 ng/mL | Activity (Mus musculus [43]): 2.8 ng/mL | Activity (Mus musculus [44]): 1.4 ng/mL | AUC(0-inf) [19]: 161 ng·h/mL | clearance [20]: 5.64 mL/min/kg | pEC50 [1]: 10.00 | pEC50 [2]: < 5.00 | pEC50 [3]: 5.00

Structure (SMILES): COC(=O)c1cccc(-c2cccc(NCCNC[C@H](O)c3cccc(Cl)c3)c2)c1
pEC50 [1]: 6.80 | pEC50 [2]: 6.30 | pEC50 [3]: 5.90

Structure (SMILES): C[C@H](CNc1cccc(-c2ccc(C(=O)O)cc2)c1)NC[C@H](O)c1cccc(Cl)c1
pEC50 [1]: 7.50 | pEC50 [2]: 5.80 | pEC50 [3]: 6.10

Structure (SMILES): C[C@H](CNc1cccc(-c2ccccc2C(=O)O)c1)NC[C@H](O)c1cccc(Cl)c1
Vd [6]: 0.37 L/kg | half-life [7]: 2.4 h | bioavailability [8]: 40% | plasma glucose (Mus musculus [45]): 417 mg/dL | plasma glucose (Mus musculus [46]): 238 mg/dL | plasma glucose (Mus musculus [47]): 222 mg/dL | Activity (Mus musculus [48]): 7.2% | Activity (Mus musculus [49]): 5.4% | Activity (Mus musculus [50]): 13.7 ng/mL | Activity (Mus musculus [51]): 6.7 ng/mL | Activity (Mus musculus [52]): 3 ng/mL | Activity (Mus musculus [53]): 5.7% | AUC(0-inf) [19]: 310 ng·h/mL | clearance [20]: 11.3 mL/min/kg | pEC50 [1]: 9.60 | pEC50 [2]: 6.00 | pEC50 [3]: 6.20

Continued by rising pEC50 [1], values first:

pEC50 [1]: 7.20 | pEC50 [2]: 5.40 | pEC50 [3]: 5.50
Structure (SMILES): O=C(O)c1cncc(-c2cccc(NCCNC[C@H](O)c3cccc(Cl)c3)c2)c1

pEC50 [1]: 7.40 | pEC50 [2]: 5.00 | pEC50 [3]: 5.30
Structure (SMILES): O=C(O)c1cccc(-c2cccc(NCCNC[C@H](O)c3cccc(Cl)c3)c2)n1

Vd [6]: 0.34 L/kg | half-life [7]: 5 h | bioavailability [8]: 43% | AUC(0-inf) [19]: 595 ng·h/mL | clearance [20]: 2.4 mL/min/kg | clearance [21]: 18.1 mL/min/kg | CL renal [22]: 0.16 mL/min/kg | Vd [23]: 1.3 L/kg | half-life [24]: 2.1 h | half-life [25]: 3 h | bioavailability [26]: 30% | CL renal [27]: 0.014 mL/min/kg | half-life [28]: 3.3 h | clearance [29]: 5.5 mL/min/kg | Vd [30]: 0.556 L/kg | half-life [31]: 4.5 h | half-life [32]: 5.2 h | pKi [33]: 5.80 | Ratio [34]: 398 | pKi [35]: 6.40 | pEC50 [1]: 8.40 | pEC50 [2]: 5.90 | pEC50 [3]: 5.40
Structure (SMILES): O=C(O)c1cccc(-c2cccc(NCCNC[C@H](O)c3cccc(Cl)c3)c2)c1 [SOLABEGRON]
Activity (Mus musculus [4]): Dose-dependent effect | Activity (Mus musculus [5]): Dose-dependent effect | plasma glucose (Mus musculus [9]): 384 mg/dL | plasma glucose (Mus musculus [10]): 207 mg/dL | plasma glucose (Mus musculus [11]): 185 mg/dL | Activity (Mus musculus [12]): 7.3% | Activity (Mus musculus [13]): 7.6% | Activity (Mus musculus [14]): 7.06% | Activity (Mus musculus [15]): 6.3 ng/mL | Activity (Mus musculus [16]): 4.4 ng/mL | Activity (Mus musculus [17]): 0.9 ng/mL | Activity (Mus musculus [18]): Dose-dependent effect

Vd [6]: 1.37 L/kg | half-life [7]: 2.4 h | bioavailability [8]: 37% | AUC(0-inf) [19]: 173 ng·h/mL | clearance [20]: 7.1 mL/min/kg | pEC50 [1]: 8.80 | pEC50 [2]: 6.20 | pEC50 [3]: 6.10
Structure (SMILES): Cc1ccc(C(=O)O)cc1-c1cccc(NCCNC[C@H](O)c2cccc(Cl)c2)c1

Vd [6]: 0.99 L/kg | clearance [20]: 9.3 mL/min/kg | pEC50 [1]: 9.70 | pEC50 [2]: < 5.00 | pEC50 [3]: 5.60
Structure (SMILES): C[C@H](CNc1cccc(-c2ccc(C(=O)O)cc2C(=O)O)c1)NC[C@H](O)c1cccc(Cl)c1
